Reference: patent US11529295B2, “Oral care composition” (Church & Dwight Co., Inc., priority 2019, dated 2022)

Test: Fluoride Uptake Study, FDA monograph evaluation (FDA Method #40)
Design: species or system bovine
Details: comparison between formulas, Tables 2 and 3
Description: Formulas 1 and 2, according to Example 1 above, are assessed by Fluoride Uptake Study, FDA monograph evaluation (FDA Method #40). A Control Formula, Placebo Formula, and USP Toothpaste Standard Formula are also assessed for comparison.
Sound, upper, central, bovine incisors were selected and cleaned of all adhering soft tissue. A core of enamel 3 mm in diameter was prepared from each tooth by cutting perpendicular to the labial surface with a hollow-core diamond drill bit. This was performed under water to prevent overheating of the specimens. Each specimen was embedded in the end of a plexiglass rod (114″ diameter×2″ long) using methylmethacrylate. […]
Each enamel specimen was then etched by immersion into 0.5 ml of 1M HC104 for 15 seconds. […] A sample of each solution was then buffered with TISAB to a pH of 5.2 (0.25 ml sample, 0.5 ml TISAB and 0.25 ml IN NaOH) and the fluoride content determined by comparison to a similarly prepared standard curve (1 ml std and 1 ml TISAB). For use in depth of etch calculation, the Ca content of the etch solution was determined by taking 50μl and analyzing for Ca by atomic absorption (0.05 ml qs to 5 ml). […]
The treatments were performed using supernatants of the dentifrice slurries. […] One layer of enamel was then removed from each specimen and analyzed for fluoride and calcium as outlined above (i.e., 15 second etch). […]

## O.O.O.O=C([O-])CC(O)(CC(=O)[O-])C(=O)[O-].O=C([O-])CC(O)(CC(=O)[O-])C(=O)[O-].[Zn+2].[Zn+2].[Zn+2] [zinc citrate trihydrate]
  enamel fluoride uptake, comparison in words: will not have a significant negative impact on Enamel Fluoride Uptake
